According to ChEMBL document CHEMBL6078670, “Discovery of a potent and selective TRPC3 antagonist with neuroprotective effects” (Bioorg Med Chem, 2025):
Active and inactive are the calls of the source. No cut-off for these calls is given here.

Tests used:
[1] = molecular target: T1, Short transient receptor potential channel 6 (Homo sapiens) (UniProt Q9Y210); assay: Antagonist activity at human TRPC6 expressed in HEK293 cells assessed as inhibition of carbachol-induced activity at 10 uM measured after 48 hrs by Whole-cell patch clamp electrophysiology; assay type: cell-based
T1 sequence (whole entry): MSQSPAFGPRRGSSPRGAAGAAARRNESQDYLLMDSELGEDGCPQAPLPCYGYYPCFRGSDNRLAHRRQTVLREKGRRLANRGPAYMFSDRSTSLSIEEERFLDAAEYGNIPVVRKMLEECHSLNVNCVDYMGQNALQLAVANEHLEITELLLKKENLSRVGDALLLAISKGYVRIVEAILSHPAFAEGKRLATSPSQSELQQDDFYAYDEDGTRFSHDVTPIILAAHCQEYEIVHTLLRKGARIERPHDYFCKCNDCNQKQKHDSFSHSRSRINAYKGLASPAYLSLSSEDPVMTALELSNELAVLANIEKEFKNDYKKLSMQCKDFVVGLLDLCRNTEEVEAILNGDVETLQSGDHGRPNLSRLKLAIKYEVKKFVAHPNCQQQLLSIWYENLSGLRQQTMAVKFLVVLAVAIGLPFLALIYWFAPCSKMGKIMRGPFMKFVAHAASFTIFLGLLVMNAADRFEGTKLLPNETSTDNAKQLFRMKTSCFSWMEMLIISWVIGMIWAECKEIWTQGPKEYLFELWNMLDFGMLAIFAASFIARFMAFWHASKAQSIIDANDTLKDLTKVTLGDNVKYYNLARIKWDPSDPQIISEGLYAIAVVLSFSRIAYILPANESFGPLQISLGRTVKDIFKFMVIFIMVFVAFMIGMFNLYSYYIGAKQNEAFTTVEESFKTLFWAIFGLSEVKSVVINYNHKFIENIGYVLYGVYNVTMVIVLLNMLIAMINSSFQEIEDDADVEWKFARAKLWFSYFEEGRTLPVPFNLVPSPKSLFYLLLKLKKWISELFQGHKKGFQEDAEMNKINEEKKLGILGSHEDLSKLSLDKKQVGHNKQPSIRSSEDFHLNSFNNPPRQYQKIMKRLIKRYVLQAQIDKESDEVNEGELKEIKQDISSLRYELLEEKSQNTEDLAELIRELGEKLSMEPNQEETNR

[2] = molecular target: T2, Cytochrome P450 1A2 (Homo sapiens, UniProt P05177); assay: Inhibition of human liver microsomes CYP1A2 measured after 10 mins incubation by LC-MS analysis; assay type: ADME, Microsome
T2 sequence (P05177 whole entry): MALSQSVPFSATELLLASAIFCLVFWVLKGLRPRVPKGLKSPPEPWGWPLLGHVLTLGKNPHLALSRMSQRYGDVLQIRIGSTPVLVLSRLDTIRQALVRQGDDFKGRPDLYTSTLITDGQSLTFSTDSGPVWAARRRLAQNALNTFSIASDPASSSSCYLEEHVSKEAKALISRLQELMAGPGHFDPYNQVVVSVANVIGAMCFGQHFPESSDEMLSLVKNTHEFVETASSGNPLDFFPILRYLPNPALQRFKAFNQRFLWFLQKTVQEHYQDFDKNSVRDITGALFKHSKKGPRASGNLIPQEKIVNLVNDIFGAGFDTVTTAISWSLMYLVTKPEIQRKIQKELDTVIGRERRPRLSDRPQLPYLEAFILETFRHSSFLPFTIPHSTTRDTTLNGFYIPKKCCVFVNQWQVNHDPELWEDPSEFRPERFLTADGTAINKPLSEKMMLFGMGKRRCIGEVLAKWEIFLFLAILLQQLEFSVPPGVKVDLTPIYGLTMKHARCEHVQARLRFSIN

[3] = Metabolic stability in mouse liver microsomes assessed as intrinsic clearance measured up to 60 mins by LC-MS/MS analysis; assay type: ADME, Microsome; conditions: 1 h
[4] = molecular target: Short transient receptor potential channel 1 (Rattus norvegicus) (UniProt Q9QX01); assay: Antagonist activity at rat TRPC1 expressed in HEK293 cells assessed as inhibition of carbachol-induced activity at 10 uM measured after 48 hrs by Whole-cell patch clamp electrophysiology; assay type: cell-based
Short transient receptor potential channel 1 (Rattus norvegicus), sequence (Q9QX01 whole entry): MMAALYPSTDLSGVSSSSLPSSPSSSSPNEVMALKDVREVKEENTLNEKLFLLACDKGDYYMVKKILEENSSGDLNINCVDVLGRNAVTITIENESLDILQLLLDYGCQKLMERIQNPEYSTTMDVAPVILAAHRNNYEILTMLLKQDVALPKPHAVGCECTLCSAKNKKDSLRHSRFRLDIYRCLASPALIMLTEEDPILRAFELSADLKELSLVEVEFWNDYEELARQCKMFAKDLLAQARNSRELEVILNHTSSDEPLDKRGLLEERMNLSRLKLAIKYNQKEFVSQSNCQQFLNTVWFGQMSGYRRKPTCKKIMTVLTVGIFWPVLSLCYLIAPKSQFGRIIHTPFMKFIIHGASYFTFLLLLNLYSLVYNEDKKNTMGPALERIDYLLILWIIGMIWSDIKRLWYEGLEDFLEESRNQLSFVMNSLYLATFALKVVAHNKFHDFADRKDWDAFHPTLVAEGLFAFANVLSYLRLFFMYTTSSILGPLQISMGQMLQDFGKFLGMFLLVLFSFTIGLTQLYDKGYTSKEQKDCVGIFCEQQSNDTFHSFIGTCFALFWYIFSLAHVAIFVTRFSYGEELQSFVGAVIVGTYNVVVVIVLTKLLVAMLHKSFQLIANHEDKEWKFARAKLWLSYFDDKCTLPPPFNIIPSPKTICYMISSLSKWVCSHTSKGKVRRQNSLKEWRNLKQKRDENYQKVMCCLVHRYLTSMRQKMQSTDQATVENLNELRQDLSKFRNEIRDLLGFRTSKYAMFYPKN

[5] = Cytotoxicity against Sprague-Dawley rat primary hippocampal cells at 100 nM; assay type: toxicity, cell-based; conditions: hippocampal neurone, 0.1 µM

For `CCNCc1cnn(-c2ccc(-n3ccc(Cl)c(Cl)c3=O)cc2)c1C(F)(F)F`, the Activity [1] was “inactive”, the IC50 [2] was greater than 50 µM and the CLH [3] was 33 µL/min/mg. For the same molecule, the Activity [4] was “inactive” and the Activity [5] was “Non-toxic”.
